Patent US5610155A, “Condensed diazepinones, processes for preparing them and agents containing these compounds for treating diseases of the central nervous system and for promoting cerebral blood circulation” (Dr. Karl Thomae GmbH, priority 1995, dated 1997)
“Also recorded” adds a separate entry of the source.

Key:
[1] = biological target: T1, M3 (Submandibular gland) (Rattus norvegicus, UniProt P08483); assay: Receptor binding test in vitro, M3 (submandibular/salivary gland), [3H]NMS; design: species or system rat (male Wistar); settings: 0.3 nM [3H]NMS, 40 min, ambient temperature, pH 7.5
T1 construct: The cerebral cortex, heart and salivary glands were removed, washed and homogenised; from tissue; host or cells: salivary (submandibular) glands of male Wistar rats (Chbb: THOM)
T1 sequence (P08483 whole entry): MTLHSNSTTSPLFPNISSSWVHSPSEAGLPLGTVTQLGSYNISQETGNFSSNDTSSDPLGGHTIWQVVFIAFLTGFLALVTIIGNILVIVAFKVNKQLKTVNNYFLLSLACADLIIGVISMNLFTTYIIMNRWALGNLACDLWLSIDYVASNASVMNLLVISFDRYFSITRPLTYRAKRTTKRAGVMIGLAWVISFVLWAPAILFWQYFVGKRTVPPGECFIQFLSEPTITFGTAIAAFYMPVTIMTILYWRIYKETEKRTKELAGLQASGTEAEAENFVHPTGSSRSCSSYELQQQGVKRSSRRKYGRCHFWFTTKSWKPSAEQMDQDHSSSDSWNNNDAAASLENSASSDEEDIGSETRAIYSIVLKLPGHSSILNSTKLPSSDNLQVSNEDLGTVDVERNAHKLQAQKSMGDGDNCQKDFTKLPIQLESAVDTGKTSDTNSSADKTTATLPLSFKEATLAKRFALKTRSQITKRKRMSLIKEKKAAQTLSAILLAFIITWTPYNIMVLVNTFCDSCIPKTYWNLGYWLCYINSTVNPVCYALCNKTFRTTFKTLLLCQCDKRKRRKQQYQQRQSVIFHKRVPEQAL

[2] = biological target: T2, M2 (Heart) (Rattus norvegicus, UniProt P10980); assay: Receptor binding test in vitro, M2 (heart), [3H]NMS; design: species or system rat (male Wistar); settings: 0.3 nM [3H]NMS, 40 min, ambient temperature, pH 7.5
T2 construct: The cerebral cortex, heart and salivary glands were removed, washed and homogenised; from tissue; host or cells: heart of male Wistar rats (Chbb: THOM)
T2 sequence (P10980 1-466): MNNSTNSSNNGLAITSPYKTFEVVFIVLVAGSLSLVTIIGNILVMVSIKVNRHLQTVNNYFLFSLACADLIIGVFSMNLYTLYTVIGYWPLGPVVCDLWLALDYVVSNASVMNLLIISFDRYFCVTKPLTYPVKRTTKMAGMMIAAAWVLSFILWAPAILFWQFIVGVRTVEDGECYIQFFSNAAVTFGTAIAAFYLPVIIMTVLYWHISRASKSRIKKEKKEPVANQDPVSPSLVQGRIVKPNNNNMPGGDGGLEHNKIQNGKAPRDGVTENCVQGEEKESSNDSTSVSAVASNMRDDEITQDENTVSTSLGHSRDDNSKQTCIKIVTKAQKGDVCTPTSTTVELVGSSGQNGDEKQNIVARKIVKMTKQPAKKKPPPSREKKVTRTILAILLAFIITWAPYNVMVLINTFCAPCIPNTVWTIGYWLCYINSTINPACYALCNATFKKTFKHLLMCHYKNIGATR

[3] = biological target: T3, M1 (Cortex) (Rattus norvegicus, UniProt P08482); assay: Receptor binding test in vitro, M1 (cerebral cortex), [3H]pirenzepine; design: species or system rat (male Wistar); settings: 1 nM [3H]pirenzepine, 90 min, ambient temperature, pH 7.5
T3 construct: The cerebral cortex, heart and salivary glands were removed, washed and homogenised; from tissue; host or cells: cerebral cortex of male Wistar rats (Chbb: THOM)
T3 sequence (P08482 1-460): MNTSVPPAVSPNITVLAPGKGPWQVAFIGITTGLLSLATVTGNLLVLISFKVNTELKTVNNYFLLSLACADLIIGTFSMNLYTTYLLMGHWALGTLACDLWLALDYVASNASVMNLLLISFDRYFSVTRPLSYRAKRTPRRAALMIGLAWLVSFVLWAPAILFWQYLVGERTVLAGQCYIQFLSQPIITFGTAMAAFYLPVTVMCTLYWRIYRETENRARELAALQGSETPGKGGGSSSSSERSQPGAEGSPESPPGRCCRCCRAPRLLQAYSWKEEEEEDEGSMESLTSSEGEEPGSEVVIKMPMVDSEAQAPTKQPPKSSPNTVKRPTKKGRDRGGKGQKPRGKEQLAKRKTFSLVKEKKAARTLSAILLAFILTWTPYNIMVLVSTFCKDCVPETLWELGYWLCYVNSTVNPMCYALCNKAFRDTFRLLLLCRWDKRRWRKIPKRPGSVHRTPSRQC

[4] = tested on: arecoline-induced increase in blood pressure; assay: Investigation for central activity: arecoline test, CNS-penetration in vivo; design: species or system rat; settings: for ED50: Rattus norvegicus, iv, read-out: ED50, reduction in the arecoline-induced increase in blood pressure
Experimental: Principle: Arecoline has both a central and a peripherally active component. […] Cerebroavailable antimuscarinics block this central effect. Method: Male rats weighing 300 g are anaesthetised i.p. with urethane (1.2 g/kg). The trachea is […], the animals are respirated with an air/oxygen mixture (80 breaths per minute). The blood pressure is recorded after canulation of the carotid artery by means of a pressure recorder (Bell and Howell Type 4-327-I). The test substances are administered through the jugular vein ([…]). […] The arecoline is administered (in doses of 0.3 mg/kg) at 15 minute intervals. After 2 comparison values, the test substance is injected in increasing doses 5 minutes before the next administration of arecoline. The results obtained were compared with the average starting values and determined as the percentage inhibition.

[5] = tested on: 24 months old learning-impaired rats; assay: Effect on the memory in the Morris water maze (aged rats); assay type: in vivo, rat; settings: 24 months old rats, 0.2 mg/kg s.c., 4 days, FIG. 1, vs physiological saline
Experimental: The tests were carried out using the water maze described by R. G. M. Morris in Learn Motive 12: 239-249 (1981) using the test method described therein.
On the first day, rats which were 24 months old and therefore learning-impaired (n=7 per group) were given 0.2 mg/kg of compound D by subcutaneous route whilst another group of these animals were given physiological saline solution (s.c.).

[6] = literature: Hunter and Roberts 1988; Hunter et al. 1986; Sutherland et al. 1982; Wishaw 1985; cited from earlier work

Structure (SMILES)	Ki [1]	Ki [2]	Ki [3]	ED50 [4]	Memory performance in the Morris water maze (in words) [5]	Effect on arecoline-mediated central effects / increase in blood pressure (in words) ([4]; rat, i.v.)	Learning ability and memory performance (in words) [6]
CCCC(C)(C)C(=O)N(CC)CCCCC1CCN(CC(=O)N2c3ccccc3C(=O)Nc3cccnc32)CC1 [Substance C, 5,11-dihydro-11-[[4-[4-[(2,2-dimethyl-1-oxopentyl)-ethylamino]butyl]-1-piperidinyl]acetyl]-6H -pyrido [2,3-b][1,4]benzodiazepin-6-one]	875 nM	38 nM	500 nM	2 mg/kg	–	–	–
CCN(CCCC1CCN(CC(=O)N2c3ccc(C)cc3C(=O)Nc3cccnc32)CC1)C(=O)C(C)(C)C [Substance E, 5,11-dihydro-8-methyl-11-[[4-[3-[(2,2-dimethyl-1-oxopropyl)-ethylamino]propyl]-1-piperidinyl]acetyl]-6H-pyrido[2,3-b][1,4]benzodiazepin-6-one]	1500 nM	100 nM	1000 nM	2.8 mg/kg	–	–	–
CCN(CCCC1CCN(CC(=O)N2c3ccccc3C(=O)Nc3cccnc32)CC1)C(=O)C(C)(C)C [Substance F, 5,11-Dihydro-11-[[4-[3-[(2,2-dimethyl-1-oxopropyl)ethylamino]propyl]-1-piperidinyl]acetyl]-6H-pyrido[2,3-b][1,4]benzodiazepin-6-one]	1500 nM	65 nM	900 nM	6.5 mg/kg	–	–	–
CCN(CC)CC1CCCCN1CC(=O)N1c2ccccc2C(=O)Nc2cccnc21 (stereo not shown) [H]	2000 nM	–	–	–	–	–	–
CCCC(C)(C)C(=O)N(CC)CCCC1CCN(CC(=O)N2c3ccc(Cl)cc3C(=O)Nc3cccnc32)CC1 [Substance D, 5,11-dihydro-8-chloro-11-[[4-[3-[(2,2-dimethyl-1-oxopentyl)-ethylamino]propyl]-1-piperidinyl]-acetyl]-6H-pyrido[2,3-b][1,4]benzodiazepin-6-one]	916 nM	25 nM	866 nM	5 mg/kg	improved memory performance; also recorded: reached the same level as the control groups of young rats	–	–
CCN(CCCC1CCN(CC(=O)N2c3ccc(C)cc3C(=O)Nc3cccnc32)CC1)C(=O)C(C)(C)CC [Substance G, 5,11-dihydro-8-methyl-11-[[4-[3-[(2,2-dimethyl-1oxobutyl)ethylamino]propyl]-1-piperidinyl]acetyl]-6H-pyrido[2,3-b][1,4]benzodiazepin-6-one]	750 nM	25 nM	600 nM	5.1 mg/kg	–	–	–
CCN(CCCC1CCN(CC(=O)N2c3ccccc3C(=O)Nc3cccnc32)CC1)C(=O)C(C)(C)CC [Substance A, 5,11-dihydro-11-[[4-[3-[(2,2-dimethyl-1-oxobutyl]-ethylamino]-propyl]-1-piperidinyl]acetyl]-6H-pyrido[2,3-b][1,4]benzodiazepin-6-one]	750 nM	25 nM	500 nM	4.5 mg/kg	–	–	–
CCCC(C)(C)C(=O)N(CC)CCCC1CCN(CC(=O)N2c3ccccc3C(=O)Nc3cccnc32)CC1 [Substance B]	300 nM	15 nM	150 nM	1.3 mg/kg	–	–	–
Cc1scc2c1N(C(=O)CN1CCC(CCCN3CCCCC3)CC1)c1ccccc1NC2=O [N]	6 nM	2 nM	7.9 nM	–	–	–	–
CCCN(CCC)CC1CCCCN1CCNC(=O)N1c2ccccc2C(=O)Nc2cccnc21 (stereo not shown) [L]	–	7.9 nM	30 nM	> 10 mg/kg	–	no effect on the increase in blood pressure caused by arecoline	–
CN1CCN(CC(=O)N2c3ccccc3C(=O)Nc3cccnc32)CC1 [pirenzepine]	–	–	–	–	–	–	a deterioration in learning ability and memory performance was observed

Second part, led by results:

Ki [1]	Ki [2]	Ki [3]	Structure (SMILES)	ED50 [4]	Memory performance in the Morris water maze (in words) [5]	Effect on arecoline-mediated central effects / increase in blood pressure (in words) ([4]; rat, i.v.)	Learning ability and memory performance (in words) [6]
50 nM	20 nM	50 nM	CCN(CC)CC1COCCN1CCCC(=O)N1c2ccccc2C(=O)Nc2cccnc21 (stereo not shown) [Q]	–	–	–	–
25 nM	3 nM	16 nM	CN(CCC1CCCCCN1C)CC(=O)N1c2ccccc2C(=O)Nc2cccnc21 (stereo not shown) [S]	–	–	–	–
40 nM	5 nM	10 nM	O=C1Nc2cccnc2N(C(=O)CCCCCN2CCCCC2)c2ccccc21 [Substance O, 5,11-dihydro-11-[1-oxo-6-(1-piperidinyl)-1-hexyl]-6H-pyrido[2,3-b][1,4]benzodiazepin-10-one, reference compound]	–	–	–	–
151 nM	–	20 nM	CCN(CC)CCCCC1CCN(CC(=O)N2c3ccccc3C(=O)Nc3cccnc32)CC1 [I]	–	–	–	–
1820 nM	120 nM	794 nM	O=C1Nc2cccnc2N(C(=O)CCC#CCN2CCCCC2)c2ccccc21 [J]	–	–	–	–
30 nM	7.6 nM	35 nM	Cc1scc2c1N(C(=O)CCC#CCN1CCCCCC1)c1ccccc1NC2=O [P]	–	–	–	–
30 nM	3 nM	7.1 nM	CN(CCC1CCCN1C)CC(=O)N1c2ccccc2C(=O)Nc2cccnc21 (stereo not shown) [R]	–	–	–	–
13 nM	2 nM	13 nM	O=C1Nc2cccnc2N(C(=O)N2CCCC(CCCN3CCCCC3)C2)c2ccccc21 (stereo not shown) [M]	–	–	–	–
